Patent publication US8314138B2, “Pyrazole derivative as SCD1 inhibitors for the treatment of diabetes” (Novartis AG, priority 2006, dated 2012)

Target: T1, stearoyl-CoA desaturase (SCD1) (Mus musculus, UniProt P13516)
T1 construct: Male ICR outbread mice, on a high-carbohydrate, low fat diet; from tissue; host or cells: liver microsomes of male ICR mice on a high-carbohydrate, low fat diet
T1 sequence (P13516 1-355): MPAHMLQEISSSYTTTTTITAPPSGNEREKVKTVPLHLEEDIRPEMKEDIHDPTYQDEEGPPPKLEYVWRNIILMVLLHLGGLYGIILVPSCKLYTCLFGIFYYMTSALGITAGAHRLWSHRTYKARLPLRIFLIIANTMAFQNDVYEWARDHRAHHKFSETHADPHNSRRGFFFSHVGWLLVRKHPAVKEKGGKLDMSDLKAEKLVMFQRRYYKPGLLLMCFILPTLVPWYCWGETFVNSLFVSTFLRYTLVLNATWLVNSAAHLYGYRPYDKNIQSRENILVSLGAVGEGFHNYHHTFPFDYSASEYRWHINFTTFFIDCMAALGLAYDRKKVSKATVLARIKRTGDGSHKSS
Assay: SCD microsomal assay: release of 3H2O from [9,10-3H]stearoyl-CoA in mouse liver microsomes
Type: biochemical
Conditions: 15 min incubation, 25° C.
Source text: The identification of compounds of the invention as SCD inhibitors was readily accomplished using the SCD enzyme and microsomal assay procedure described in Shanklin J. and Summerville C., Proc. Natl. Acad. Sci. USA (1991), Vol. 88, pp. 2510-2514.
Measuring Stearoyl-CoA Desaturase Inhibition Activity of a Test Compound Using Mouse Liver Microsomes
The identification of compounds of the invention as SCD inhibitors was readily accomplished using the SCD microsomal assay procedure described in Shanklin J. and Summerville C., Proc. Natl. Acad. Sci. USA (1991), Vol. 88, pp. 2510-2514, which is incorporated herein by reference in its entirety.
Preparation of Mouse Liver Microsomes:
Male ICR outbread mice, on a high-carbohydrate, low fat diet, under light halothane (15% in mineral oil) anesthesia are sacrificed by exsanguination during periods of high enzyme activity. Livers are immediately rinsed with cold 0.9% NaCl solution, weighed and minced with scissors. All procedures are performed at 4° C. unless specified otherwise. Livers are homogenized in a solution (1/3 w/v) containing 0.25 M sucrose, 62 mM potassium phosphate buffer (pH 7.0), 0.15 M KCl, 15 mM N-acetylcysteine, 5 mM MgCl2, and 0.1 mM EDTA using 4 strokes of a Potter-Elvehjem tissue homogenizer. The homogenate is centrifuged at 10,400×g for 20 min to eliminate mitochondria and cellular debris. The supernatant is filtered through a 3-layer cheesecloth and centrifuged at 105,000×g for 60 min. The microsomal pellet is gently resuspended in the same homogenization solution with a small glass/teflon homogenizer and stored at −70° C. The absence of mitochondrial contamination is enzymatically assessed. The protein concentration is measured using bovine serum albumin as the standard.
Incubation of Mouse Liver Microsomes with Test Compounds:
Desaturase activity is measured as the release of ^3H2O from [9,10-^3H]stearoyl-CoA. Reactions per assay point conditions are as follows: 2 μL 1.5 mM stearoyl-CoA, 0.25 μL 1 mCi/mL ^3H stearoyl CoA, 10 μL 20 mM NADH, 36.75 μL 0.1 M PK buffer (K2HPO4/NaH2PO4, pH 7.2). The test compound or control solution is added in a 1 μL volume. Reactions are started by adding 50 μL of microsomes (1.25 mg/mL). The plates are mixed and after 15 min incubation on a heating block (25° C.), the reactions are stopped by the addition of 10 μL 60% PCA. An aliquot of 100 μL is then transferred to a filter plate pretreated with charcoal and the plate centrifuged at 4000 rpm for 1 minute. The flow through containing the ^3H2O released by the SCD1 desaturation reaction is added to scintillation fluid and the radioactivity measured in a Packard TopCount. The data is analyzed to identify the IC50 for test compounds and reference compounds. […] The activity was defined in terms of % SCD enzyme activity remaining at the desired concentration of the test compound or as the IC50 concentration. The IC50 (affinity) of the example compounds toward the stearoyl-CoA desaturase is comprised between around 20 μM and 0.0001 μM or between around 5 μM and 0.0001 μM or between around 1 μM and 0.0001 μM.

IC50	Structure (SMILES)
42 nM	Cc1nc(-c2cncc(CCc3ccccc3)n2)sc1C(=O)NCc1ccccc1 [Example 4, 4-methyl-2-(6-phenethyl-pyrazin-2-yl)-thiazole-5-carboxylic acid benzylamide]
164 nM	Cc1nc(-c2cncc(N(C)CCCc3ccccc3)n2)sc1C(=O)NCc1ccc(F)cc1 [Example 16, 4-methyl-2-{6-[methyl-(3-phenyl-propyl)-amino]-pyrazin-2-yl}-thiazole-5-carboxylic acid 4-fluoro-benzylamide]
98 nM	COc1ccc(CN(C)c2cncc(-c3nc(C)c(C(=O)NCc4ccc(F)cc4)s3)n2)cc1 [Example 22, 2-{6-[(4-methoxy-benzyl)-methyl-amino]-pyrazin-2-yl}-4-methyl-thiazole-5-carboxylic acid 4-fluoro-benzylamide]
124 nM	Cc1nc(-c2cncc(N(C)Cc3ccc(F)cc3)n2)sc1C(=O)NCc1ccccc1 [Example 29, 2-{6-[(4-fluoro-benzyl)-methyl-amino]-pyrazin-2-yl}-4-methyl-thiazole-5-carboxylic acid benzylamide]
71 nM	Cc1nc(-c2ccn(CCCc3ccccc3)n2)sc1C(=O)NCc1ccccc1 [Example 37, 4-methyl-2-[1-(3-phenyl-propyl)-1H-pyrazol-3-yl]-thiazole-5-carboxylic acid benzylamide]
74 nM	Cc1nc(-c2ccn(Cc3ccc(C#N)cc3)n2)sc1C(=O)NCc1cccnc1 [Example 52, 2-[1-(4-cyano-benzyl)-1H-pyrazol-3-yl]-4-methyl-thiazole-5-carboxylic acid (pyridin-3-ylmethyl)amide]
172 nM	Cc1nc(-c2ccn(Cc3ccc(S(C)(=O)=O)cc3)n2)sc1C(=O)NCc1cccnc1 [Example 66, 2-[1-(4-methanesulfonyl-benzyl)-1H-pyrazol-3-yl]-4-methyl-thiazole-5-carboxylic acid (pyridin-3-ylmethyl)amide]
49 nM	Cc1nc(-c2ccn(CCN(C)c3ccccc3)n2)sc1C(=O)NCc1cccnc1 [Example 79, 4-methyl-2-{1-[2-(methyl-phenylamino)-ethyl]-1H-pyrazol-3-yl}-thiazole-5-carboxylic acid (pyridin-3-ylmethyl)amide]
147 nM	Cc1nc(-c2ccn(CCC3CC3)n2)sc1C(=O)NCc1ccc(F)cc1 [Example 85, 2-[1-(2-cyclopropyl-ethyl)-1H-pyrazol-3-yl]-4-methyl-thiazole-5-carboxylic acid 4-fluoro-benzylamide]
96 nM	COc1ccc(CCn2ccc(-c3nc(C)c(C(=O)NCc4ccc(F)cc4)s3)n2)cc1 [Example 87, 2-{1-[2-(4-Methoxy-phenyl)-ethyl]-1H-pyrazol-3-yl}-4-methyl-thiazole-5-carboxylic acid 4-fluoro-benzylamide]
